What was measured:
[1] = test system: NASH-modeled golden hamsters; test: NASH-modeled golden hamster (method as Example 4, changed doses); assay type: in vivo; conditions: obeticholic acid 5 mg/kg
Experimental: The experimental method is referred to the Example 4, except for addition of Ezetimibe group (0.3 mg/kg), dosage change to 5 mg/kg obeticholic acid for the obeticholic acid group, as well as dosage change to 5 mg/kg obeticholic acid and 0.3 mg/kg Ezetimibe for the obeticholic acid+Ezetimibe group. Specifically, a normal group (A), a model group (B), an obeticholic acid group (C), an obeticholic acid+Ezetimibe group (D) and an Ezetimibe group (E) are included in this example.
Liver tissue samples from individual golden hamsters after treatment were subjected to paraffin-sectioning, with results shown in FIG. 3.

[2] = test system: cytochrome p450; conditions: 14C as a marker; cited from earlier work
[3] = patients in an obeticholic acid treatment group; cited from earlier work
[4] = test system: NAFLD-modeled golden hamsters; test: Simple high-fat diet-induced NAFLD-modeled golden hamster; assay type: in vivo; conditions: obeticholic acid 1 mg/kg, Ezetimibe 1 mg/kg, x ± s; for ALP / ALT / AST / HDL-C / LDL-C / TC / TG: plasma
Source text: Obeticholic acid and Ezetimibe each are formulated with 10% Kolliphor HS 15 (BASF, Lot. No. 21466288K0) to a desired concentration.
78 specific pathogen free (SPF) male golden hamsters were provided, each with a body weight (BW) around 70 to 90 g, and commercially available from Beijing Vital River Laboratory Animal Technology Co., Ltd. Animal permit number is SCXK (Jing) 2012-0001.
10 golden hamsters were fed with a base diet as a normal group, while 68 golden hamsters were fed with a high-fat diet formulated with 0.3% cholesterol, 12.5% palm oil and 87.2% base diet upon purchased. All of them had free access to water, and kept in a same light rhythm (day time/night time: 10 h/14 h). After 3 weeks of feed, the golden hamsters were fasted for 14 hours, with free access to water, and then sampled for blood in a volume of 0.8 mL from posterior orbital venous plexus the next day. The blood samples added with sodium heparin for anticoagulation were centrifuged at 5000 r·min^−1 for 10 minutes, and 300 μL of supernatant for each sample was transferred into an assay cup (in volume of microliter grade) of the Sysmex CHEX-180 automatic biochemical analyzer for determination of levels of TC, TG, LDL-C, HDL-C and ALT, with results for screening of the hamsters.
6 out of 10 golden hamsters fed with the base diet were selected as a normal group, while 30 out of 68 golden hamsters fed with the high-fat diet were grouped into 3 experimental groups randomly (i.e. 10 hamsters for each group), respectively named model group, obeticholic acid group (1 mg/kg) and obeticholic acid (1 mg/kg)+Ezetimibe (1 mg/kg) group. From the first administration at PM 4:00 of the day after grouping, the 3 experimental groups were started to be each administered in a dosage of 10 mL·kg^−1, where the model group was administered with 10% Kolliphor in an equal volume. During administration, the normal group was still fed with the base diet, and the 3 experimental groups were fed with the high-fat diet. At 2 weeks of administration, all the golden hamsters were fasted but accessible to water overnight, and anesthetized with ethyl ether on the morning of the next day for collection of blood samples (in a volume of 0.8 mL) from the posterior orbital venous plexus. The blood samples added with sodium heparin for anticoagulation were centrifuged at 5000 r·min^−1 for 10 minutes, and 300 μL of plasma for each sample was transferred into the Sysmex CHEX-180 automatic biochemical analyzer for determination of levels of TC, TG, LDL-C, HDL-C, ALT, AST and ALP. At 4 weeks of administration, plasma of each hamster was collected for determination of levels of TC, TG LDL-C, HDL-C, ALT, AST and ALP. Afterwards, the hamsters were anesthetized with ethyl ether deeply, followed by weighting and laparotomy by an abdominal median incision for observation of size, color and texture of liver. After photographed, the liver was taken out, washed with saline and dried with filter paper, and weighted for calculation of liver index. Subsequently, left lobe of liver was cut out quickly and placed into 10% of neutral buffered formalin for immobilization, followed by preparation of paraffin sections (with HE staining) for observation of change of liver tissue pathology.
The results are represented in x±s, and comparison among groups is performed by t-test.

[5] = after 4 weeks of administration
[6] = after 2 weeks of administration

O=C1[C@H](CC[C@H](O)c2ccc(F)cc2)[C@@H](c2ccc(O)cc2)N1c1ccc(F)cc1 [Ezetimibe]
ALP level ([1]; Ezetimibe 0.3 mg/kg): reduces ALP level slightly | fat content in liver cells (pathological sections of liver tissues, FIG. 3) ([1]; Ezetimibe 0.3 mg/kg): not reducing fat content in liver significantly | infiltration and aggregation of inflammatory cells (pathological sections of liver tissues, FIG. 3) ([1]; Ezetimibe 0.3 mg/kg): ameliorating | level of LDL in plasma ([1]; Ezetimibe 0.3 mg/kg): reduces levels of triglyceride, cholesterol, LDL, liver function enzymes in plasma significantly | level of cholesterol in plasma ([1]; Ezetimibe 0.3 mg/kg): reduces levels of triglyceride, cholesterol, LDL, liver function enzymes in plasma significantly | level of triglyceride in plasma ([1]; Ezetimibe 0.3 mg/kg): reduces levels of triglyceride, cholesterol, LDL, liver function enzymes in plasma significantly | levels of liver function enzymes (alanine aminotransferase and aspartate aminotransferase) in plasma ([1]; Ezetimibe 0.3 mg/kg): reduces levels of triglyceride, cholesterol, LDL, liver function enzymes in plasma significantly | metabolism by a primary drug metabolic enzyme (cytochrome p450) [2]: barely metabolized

CC[C@H]1[C@@H](O)[C@@H]2[C@H](CC[C@]3(C)[C@@H]([C@H](C)CCC(=O)O)CC[C@@H]23)[C@@]2(C)CC[C@@H](O)C[C@@H]12 [Obeticholic acid, obeticholic acid]
blocking the progression of liver fibrosis (pathological sections of liver tissues) [1]: no effect | infiltration and aggregation of inflammatory cells (pathological sections of liver tissues, FIG. 3) ([1]; Ezetimibe 0.3 mg/kg): no effect | level of high density lipoprotein compared to a placebo control [3]: lower | level of low density lipoprotein compared to a placebo control [3]: higher | level of total cholesterol compared to a placebo control [3]: higher | liver index (%) [4, 5]: 5.15 ± 0.33% | ALP [4, 6]: 190.20 ± 26.30 U · L^−1 | ALT [4, 6]: 120.50 ± 41.78^ U · L^−1 | AST [4, 6]: 59.20 ± 14.01 U · L^−1 | HDL-C [4, 6]: 2.70 ± 0.37 mmol/L | LDL-C [4, 6]: 7.07 ± 3.22 mmol/L | TC [4, 6]: 14.32 ± 3.15^ mmol · L^−1 | TG [4, 6]: 2.20 ± 0.52 mmol/L | ALP [4, 5]: 196.30 ± 18.91 U · L^−1 | ALT [4, 5]: 165.20 ± 44.90 U · L^−1 | AST [4, 5]: 80.80 ± 13.13 U · L^−1 | HDL-C [4, 5]: 3.51 ± 0.71 mmol/L | LDL-C [4, 5]: 16.04 ± 13.52 mmol/L | TC [4, 5]: 22.89 ± 5.91 mmol/L | TG [4, 5]: 2.07 ± 0.97 mmol/L

Source: patent publication US20190083459A1, “PHARMACEUTICAL COMPOSITION AND USE THEREOF” (WATERSTONE PHARMACEUTICALS(WUHAN) CO., LTD., priority 2016, published 2019)
